# Where no end group is shown, it is not given here.
# Columns and labels:
# BALB/c mouse = assay: TNBS-induced mouse colitis model; type: in vivo
# Experimental: AJP001 conjugated peptide (SEQ ID NO: 2) was dissolved in physiological saline, mixed with an equal amount of 1 mg/mL Type-B/K CpG-ODN K3 (GeneDesign, Inc., hereinafter sometimes to be referred to as “CpG”), and subcutaneously administered to BALB/c mouse (female, 6-week-old, N=10) at 1 mg/body 3 times at two-week intervals. At the time point of 6 weeks after the initial administration, TNBS dissolved in 30% ethanol was administered by intestinal infusion at 2 mg/body. With the first administration of TNBS as Day 0, TNBS was administered by intestinal infusion at 3 mg/body on Day 7 to induce colitis. A Normal group and a 30% EtOH group, each without administration of TNBS, a Saline/TNBS group with administration of TNBS but without administration of the peptide, and a CpG/INBS group with administration of only an adjuvant were provided. Body weight was measured on Days 1, 2, 3, 4, 7, 8, 9, and 10, including the day of TNBS administration. After euthanasia by cardiac blood collection under deep anesthesia on Day 10, the obtained serum was measured for the antibody titer (GMT) and binding to mIL-23 by the ELISA method (same method as in Example 1). In addition, large intestinal tissue was collected, the length (cm) of the large intestine was measured, a 2 cm region from the anus was subjected to the measurement of cytokine mRNA expression, and a 2 to 4 cm region was subjected to histopathological examination. As to the expression of cytokine mRNA, the region was bead disrupted under ice-cooling, total RNA was extracted using RNeasy Fibrous Tissue Kit (Qiagen), and then cDNA of the extracted RNA was prepared using High-Capacity cDNA Reverse Transcription Kit ([…]). Using TaqMan Gene Expression Assays (GAPDH: Mm99999915_g1; IL-17A: Mm00439618_m1; IL-17F:Mm00521423_m1; IL-22:Mm01226722_m1; IL-23:Mm00518984_m1; IL-1β:Mm00434228_m1), Ct value was measured using Applied Biosystems 7900HT Fast Real Time PCR System. The mRNA expression level was calculated by the ΔΔCt method and evaluated as a relative value to the normal group. For histopathological examination, the collected large intestine was fixed with 10% neutral formalin, and then a specimen was prepared according to a conventional method and stained with HE. The HE-stained specimen was observed under a microscope, scored for inflammatory cell infiltration (Grade: 0-3), depth of colorectal tissue damage (Grade: 0-3), and range of colorectal mucosal damage (Grade: 0-4), and the total score was calculated.
# epitope peptide = assay: Antibody titer (GMT) of serum of Macaca fascicularis, ELISA; type: in vivo; conditions: 5 mg/body subcutaneous 3 times at two-week intervals, blood every two weeks until week 16
# Experimental: AJP001 conjugated peptide having one of the B cell epitope sequences of SEQ ID NOs: 1-5 was dissolved in physiological saline and intradermally administered twice to BALB/c mice (female, 6-week-old, N=5-6) at 0.5 mg/body at 2-week intervals. Blood was collected before administration and 5 weeks after the initial administration, and the antibody titer against each AJP001 conjugated peptide and the binding ability to recombinant mouse IL-23 protein (rmIL-23) were measured by the ELISA method. […] After washing the wells with PBS-T, TMB solution (SIGMA) was added, the wells were allowed to stand for 30 min in the dark, the reaction was stopped by adding 0.5M H2SO4, and the absorbance at 450 nm was measured using a plate reader. The serum dilution rate that gave 1/2 (OD=1.75) of the maximum absorbance was defined as the antibody titer, and the geometric mean titer: GMT was calculated from the individual values. Binding to IL-23 protein was measured by the ELISA method in the same manner as the antibody titer, using rmIL-23 (Antibodies-online GmbH) as the solid-phased antigen and goat serum for blocking. […] Blood was collected every two weeks from the first day of administration until week 16, and the antibody titer (GMT) and binding to IL-23 of the serum at each time point were measured by the ELISA method (same method as in Example 1; the secondary antibody used was Anti-Monkey IgG (Abcam)). […]
Substance,"shortened large intestine length (BALB/c mouse; 1 mg/body with CpG 3 times, Day 10)","inflammatory changes in large intestine tissues (BALB/c mouse; 1 mg/body with CpG 3 times, Day 10, HE)","mRNA expression of IL-17A, IL-22, and IL-1β in tissues (BALB/c mouse; 1 mg/body with CpG 3 times, Day 10, large intestinal tissue)","body weight loss (BALB/c mouse; BALB/c mice, 1 mg/body subcutaneous with CpG-ODN K3, 3 times, TNBS Day 0 and Day 7, vs Saline/TNBS or CpG/TNBS)",antibody titer (GMT) over time (epitope peptide)
SEQ ID NO 2: AJP001-Ahx-B cell epitope peptide conjugate; epitope SSSQQWQR (mouse 152-159) (not fully specified (N-terminus); listed as Mus musculus),suppressive action,suppressive action,suppressive action,suppressive action,
SEQ ID NO 6: AJP001-Ahx-B cell epitope peptide conjugate; epitope SPSQPWQR (human 151-158) (not fully specified (N-terminus); listed as Homo sapiens),,,,,increased from 2 weeks after the initial administration and persisted until 16 weeks

# From patent US20250057928A1, “VACCINE COMPOSITION FOR INDUCING ANTI-IL-23 ANTIBODY” (OSAKA UNIVERSITY, priority 2021, published 2025)
